{"source": "patent US12263155B2", "about": "“Combinations of monoamine oxidase inhibitors and serotonin receptor agonists and their therapeutic use” (Remedi, Inc., priority 2022, dated 2025)", "key": {"[1]": {"settings": "10, 20 and 40 mg twice daily for 14 days, healthy volunteers", "experimental": "Methods: The study was a Phase I, single-center, randomized, parallel-group, multiple-dose, placebo-controlled, pharmacodynamic, pharmacokinetic and safety study in healthy volunteers. To obtain 24 enrolled subjects, screening procedures and inclusion/exclusion criteria were evaluated for 54 subjects during a variable screening period of up to 28 days. Once enrolled, subjects were randomized to either CX157 10 mg, 20 mg or 40 mg or matching placebo administered twice daily for 14 consecutive days."}, "[2]": {"test": "Phase I modified release tablets BID safety", "assay_type": "in vivo, human", "settings": "125 mg and 175 mg BID, 7 days each", "experimental": "Methods: A total of 20 Subjects (16 on CX157 and 4 on placebo) were dosed with CX157 Modified Release Tablets, 125 mg BID (total daily dose of 250 mg) or placebo in Period 1 for 7 days. Of the 20 subjects, 19 continued in Period 2 of the study where they received CX157 Modified Release Tablets, 175 mg BID (total daily dose of 350 mg) or placebo in the fed state for 7 days. Subjects who were randomized to CX157 125 mg BID in Period 1 received CX157 175 mg BID in Period 2, after a washout of 7 days. Subjects randomized to placebo in Period 1 received placebo in Period 2, after a washout of 7 days. Blood samples for PK analysis were collected during both periods of the study."}, "[3]": {"test": "Exemplary administration of CX157, DMT and combinations: subjective effects", "assay_type": "in vivo", "settings": "175 mg CX157 alone", "experimental": "Administration Example 1: Subjects are administered 175 mg CX157 alone.\nAdministration Example 2: Subjects are administered 25 mg, 37.5 mg, 50 mg, 75 mg, or 100 mg DMT freebase in a capsule.\nAdministration Example 3: Subjects are administered 175 mg CX157, and then from between 2-3 hours later, such as at 2 hours 40 minutes later, a dose of 0.03 mg/kg, 0.05 mg/kg, or 0.07 mg/kg DMT freebase in capsule. Alternatively, subjects are administered a capsule containing 2.5 mg, 3.75 mg, 5 mg, 7.5 mg, 10 mg, 12.5 mg, 15 mg, 17.5 mg, or 20 mg DMT freebase.\nAdministration Example 4: Subjects are administered 175 mg CX157, and then from between 2-3 hours later, such as at 2 hours 15 minutes later, a dose of 0.2 mg/kg, 0.4 mg/kg, or 0.6 mg/kg DMT freebase in capsule. Alternatively, subjects are administered a capsule containing 25 mg, 37.5 mg, 50 mg, 75 mg, 100 mg, 125 mg, 150 mg, 175 mg, or 200 mg DMT freebase. At lower doses of DMT, subjects report effects that are relaxing, comforting, and “warm,” and describe mildly mood-elevating and anxiolytic properties. […]"}, "MAO-B": {"biological_target": "T1, MAO-B (Homo sapiens, UniProt P27338)", "T1 sequence (P27338 1-520)": "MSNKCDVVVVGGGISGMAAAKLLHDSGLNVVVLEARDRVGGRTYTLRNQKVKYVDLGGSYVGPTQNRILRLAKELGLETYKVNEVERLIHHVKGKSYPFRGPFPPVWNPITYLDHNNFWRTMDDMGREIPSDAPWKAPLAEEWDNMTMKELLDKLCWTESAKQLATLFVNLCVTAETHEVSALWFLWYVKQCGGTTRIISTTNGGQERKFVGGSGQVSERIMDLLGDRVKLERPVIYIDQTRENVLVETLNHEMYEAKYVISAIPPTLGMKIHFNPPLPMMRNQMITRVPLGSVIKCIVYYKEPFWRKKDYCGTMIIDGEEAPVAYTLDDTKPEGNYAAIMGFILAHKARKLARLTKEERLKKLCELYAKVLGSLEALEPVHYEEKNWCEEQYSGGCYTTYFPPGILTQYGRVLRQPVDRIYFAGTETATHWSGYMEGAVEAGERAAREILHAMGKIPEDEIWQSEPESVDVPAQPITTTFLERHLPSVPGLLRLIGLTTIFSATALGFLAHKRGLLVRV"}}}
{"smiles": "O=S1(=O)c2ccc(F)cc2Oc2cc(OCC(F)(F)F)ccc21", "note": "[CX157, 3-fluoro-7(2,2,2-trifluorethoxy)phenoxathiine-10,10-dioxide]", "values": [{"measurement": "safety and tolerability", "setting": "[1]", "result": "generally safe and well tolerated"}, {"measurement": "tolerability", "setting": "[2]", "result": "well tolerated"}, {"measurement": "antidepressant activity", "setting": "[3]", "result": "no significant antidepressant activity"}, {"measurement": "selectivity for MAO-A inhibition over MAO-B inhibition", "setting": "MAO-B; human brain homogenates", "result": "> 1000", "unit": "fold"}, {"measurement": "MAO-B inhibition", "setting": "MAO-B; tested concentration 10 μM", "result": "no detectable MAO-B inhibition"}]}
